# “Also recorded” adds a separate entry of the source.
# Assays:
# [1] = test system: CD organoid-derived cells; assay: Aldosterone response of transepithelial current in CD organoid-derived cells; type: cell-based, human; settings: 24 hours; for increase in amiloride-sensitive current: aldosterone 10-100 nM, no dexamethasone
# [2] = biological target: T1, V-type ATPase (Homo sapiens, UniProt P27449); assay: Transwell open-circuit voltage and calculated current in FOXI1-induced (doxycycline-treated) CD cells; type: cell-based; settings: bafilomycin 10 nM, added after amiloride, open circuit
# [3] = biological target: T1, V-type ATPase; assay: Ussing chamber short-circuit current in FOXI1-induced CD cells; settings: closed circuit
# [4] = biological target: T2, ENaC (Homo sapiens, UniProt P37088+P51168+P51170); settings: amiloride 10 μM, open circuit
# T2 sequence (P37088 1-669): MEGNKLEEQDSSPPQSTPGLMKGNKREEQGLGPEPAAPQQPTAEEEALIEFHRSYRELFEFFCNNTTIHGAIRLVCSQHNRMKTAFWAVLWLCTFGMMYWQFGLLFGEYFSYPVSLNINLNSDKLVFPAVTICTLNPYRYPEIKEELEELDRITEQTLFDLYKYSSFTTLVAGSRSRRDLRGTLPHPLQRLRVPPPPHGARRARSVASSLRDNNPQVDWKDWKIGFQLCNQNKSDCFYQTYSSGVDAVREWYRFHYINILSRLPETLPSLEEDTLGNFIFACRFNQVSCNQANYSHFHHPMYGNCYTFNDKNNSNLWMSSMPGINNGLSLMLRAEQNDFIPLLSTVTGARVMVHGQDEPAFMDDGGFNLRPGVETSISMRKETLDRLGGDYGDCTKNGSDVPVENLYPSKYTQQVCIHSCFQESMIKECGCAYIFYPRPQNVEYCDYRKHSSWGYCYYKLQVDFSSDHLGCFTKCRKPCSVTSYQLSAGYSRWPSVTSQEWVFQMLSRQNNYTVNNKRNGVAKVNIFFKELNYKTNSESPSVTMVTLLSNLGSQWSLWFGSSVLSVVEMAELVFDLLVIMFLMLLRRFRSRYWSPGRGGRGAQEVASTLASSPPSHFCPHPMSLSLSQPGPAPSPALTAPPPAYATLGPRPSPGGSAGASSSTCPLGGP
# T2 sequence (P51168 1-640): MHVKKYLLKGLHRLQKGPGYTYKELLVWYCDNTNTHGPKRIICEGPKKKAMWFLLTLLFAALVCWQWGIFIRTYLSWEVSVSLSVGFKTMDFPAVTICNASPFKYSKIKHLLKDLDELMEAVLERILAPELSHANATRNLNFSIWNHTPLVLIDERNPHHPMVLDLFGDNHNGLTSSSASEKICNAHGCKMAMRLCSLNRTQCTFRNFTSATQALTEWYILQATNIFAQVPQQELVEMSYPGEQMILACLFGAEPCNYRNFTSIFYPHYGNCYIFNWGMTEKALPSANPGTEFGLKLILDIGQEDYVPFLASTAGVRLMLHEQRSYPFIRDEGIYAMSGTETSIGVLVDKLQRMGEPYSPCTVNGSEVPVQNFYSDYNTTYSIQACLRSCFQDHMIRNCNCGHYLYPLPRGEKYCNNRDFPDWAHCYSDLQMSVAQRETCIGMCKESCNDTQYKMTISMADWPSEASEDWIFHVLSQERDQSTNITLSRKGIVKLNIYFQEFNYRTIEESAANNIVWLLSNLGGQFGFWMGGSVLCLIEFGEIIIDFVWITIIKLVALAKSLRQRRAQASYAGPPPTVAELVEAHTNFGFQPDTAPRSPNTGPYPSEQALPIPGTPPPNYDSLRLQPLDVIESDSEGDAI
# T2 sequence (P51170 1-649): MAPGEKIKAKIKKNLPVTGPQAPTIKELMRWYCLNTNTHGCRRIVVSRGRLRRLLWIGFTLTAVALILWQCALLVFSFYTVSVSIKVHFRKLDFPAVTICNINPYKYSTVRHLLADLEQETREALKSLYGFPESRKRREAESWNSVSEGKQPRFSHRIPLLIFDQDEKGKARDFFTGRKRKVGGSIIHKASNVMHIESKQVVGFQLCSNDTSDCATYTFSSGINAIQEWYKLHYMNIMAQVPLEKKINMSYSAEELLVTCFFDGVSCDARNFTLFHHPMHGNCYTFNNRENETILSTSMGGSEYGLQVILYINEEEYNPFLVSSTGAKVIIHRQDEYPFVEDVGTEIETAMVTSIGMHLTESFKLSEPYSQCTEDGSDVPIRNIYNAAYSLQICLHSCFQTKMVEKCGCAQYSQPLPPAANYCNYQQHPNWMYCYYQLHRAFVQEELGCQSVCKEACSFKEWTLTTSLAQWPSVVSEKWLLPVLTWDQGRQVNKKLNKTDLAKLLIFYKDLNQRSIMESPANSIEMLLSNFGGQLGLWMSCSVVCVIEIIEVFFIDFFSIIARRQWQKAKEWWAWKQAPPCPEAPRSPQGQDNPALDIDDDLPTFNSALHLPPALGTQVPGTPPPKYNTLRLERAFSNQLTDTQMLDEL
# [5] = test system: V-type ATPase; assay: Transwell open-circuit voltage and calculated current in FOXI1-induced (doxycycline-treated) CD cells; type: cell-based, human; settings: open circuit transwell, amiloride 10 μM
# [6] = biological target: T2, ENaC; assay: Ussing chamber short-circuit current (Isc) recordings in CD organoid-derived cells; type: cell-based; set-up: while the alpha subunit (SCNN1A) was expressed at lower levels; we confirmed expression at the protein level using an antibody specific to SCNN1B; the beta and gamma subunits were most abundant transcriptionally; endogenous in cells; host or cells: 2D cell line derived from hPSC-derived collecting duct organoids (principal cells), grown on transwell / Snapwell inserts
compound,measurement,setting,value
"C[C@]12CCC(=O)C=C1CC[C@@H]1[C@@H]2[C@@H](O)C[C@]2(C=O)[C@@H](C(=O)CO)CC[C@@H]12 [Aldosterone, aldosterone]",increase in amiloride-sensitive current,[1],~ 2.5 fold
same,increase in amiloride-sensitive current,[1]; listed as aldosterone,approximately 2.5 fold
same,transepithelial voltage and current,[1]; varying concentrations of aldosterone,dose-dependent increase
"CO/C1=C\C(C)=C\[C@@H](C)[C@@H](O)[C@@H](C)C/C(C)=C/C=C/[C@H](OC)[C@@H]([C@@H](C)[C@@H](O)[C@H](C)[C@@]2(O)C[C@@H](O)[C@H](C)[C@@H](C(C)C)O2)OC1=O [bafilomycin, bafilomycin-A1]",voltage and calculated current in FOXI1-induced cells,[2],completely suppressed
same,"short-circuit current in FOXI1-induced cells, bafilomycin",[3],near complete inhibition of the current
N=C(N)NC(=O)c1nc(Cl)c(N)nc1N [amiloride],transepithelial resistance,[4],raising the transepithelial resistance
same,transepithelial voltage and current,[4]; within several minutes,completely abolished
same,amiloride sensitivity of FOXI1-induced cells,[5],largely lost sensitivity
same,residual short-circuit current after raising the concentration,"[6]; amiloride 100 μM, Ussing chamber",eliminated the small amount of residual current; also recorded: completely abolished
same,inhibition at 10 µM,[6]; read-out: inhibition of short-circuit current,> 95%
same,"short-circuit current in FOXI1-induced cells, amiloride",[3],small increase in current

# From patent US20260258369A1, “GENERATION OF BRANCHING URETERIC BUD AND COLLECTING DUCT ORGANOIDS FROM HUMAN PLURIPOTENT STEM CELLS” (The Brigham and Women's Hospital, Inc., priority 2023, published 2026)
